Assay results: PubChem BioAssay AID2060486 (Molecular Pharmacology Branch, DTP, NCI, 2025)

Tested on: IGROV1 complex spheroids (HUVEC, MSC), viability % test/control
Assay: Anticancer human tumor IGROV1 cell line growth inhibition [GQUAD];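 note: spheroids exposed to compounds for 7 days before readout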;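 for viability, T/C: 100% = DMSO vehicle control viability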
Details: for IC50: curve of first compound; for viability, T/C: stronger effect = lower value
Method in brief: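 Viability of tumor cells grown as complex spheroids with endothelial and stromal cells, exposed to drug combinations. Top concentration at or near clinical Cmax (else 10 microM), diluted in half-log increments.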

[1] = second compound 0.0316 µM, first compound 0.0316 µM
[2] = second compound 0.0316 µM, first compound 0.1 µM
[3] = second compound 0.0316 µM, first compound 0.316 µM
[4] = second compound 0.0316 µM, first compound 1 µM
[5] = second compound 0.0316 µM, first compound 3.16 µM
[6] = second compound 0.0316 µM, first compound 10 µM
[7] = second compound 0.1 µM, first compound 0.0316 µM
[8] = second compound 0.1 µM, first compound 0.1 µM
[9] = second compound 0.1 µM, first compound 0.316 µM
[10] = second compound 0.1 µM, first compound 1 µM
[11] = second compound 0.1 µM, first compound 3.16 µM
[12] = second compound 0.1 µM, first compound 10 µM
[13] = second compound 0.316 µM, first compound 0.0316 µM
[14] = second compound 0.316 µM, first compound 0.1 µM
[15] = second compound 0.316 µM, first compound 0.316 µM
[16] = second compound 0.316 µM, first compound 1 µM
[17] = second compound 0.316 µM, first compound 3.16 µM
[18] = second compound 0.316 µM, first compound 10 µM
[19] = second compound 1 µM, first compound 0.0316 µM
[20] = second compound 1 µM, first compound 0.1 µM
[21] = second compound 1 µM, first compound 0.316 µM
[22] = second compound 1 µM, first compound 1 µM
[23] = second compound 1 µM, first compound 3.16 µM
[24] = second compound 1 µM, first compound 10 µM
[25] = second compound 3.16 µM, first compound 0.0316 µM
[26] = second compound 3.16 µM, first compound 0.1 µM
[27] = second compound 3.16 µM, first compound 0.316 µM
[28] = second compound 3.16 µM, first compound 1 µM
[29] = second compound 3.16 µM, first compound 3.16 µM
[30] = second compound 3.16 µM, first compound 10 µM
[31] = second compound 10 µM, first compound 0.0316 µM
[32] = second compound 10 µM, first compound 0.1 µM
[33] = second compound 10 µM, first compound 0.316 µM
[34] = second compound 10 µM, first compound 1 µM
[35] = second compound 10 µM, first compound 3.16 µM
[36] = second compound 10 µM, first compound 10 µM

CC(C)n1c(=O)n(C)c2cnc3cc(F)c(-c4ccc(OCCCN5CCCCC5)nc4)cc3c21 + Cc1cnc(CNC(=O)c2c(=O)c3ccc(N4CCCN(C)CC4)nc3n3c2sc2ccccc23)cn1
IC50 (second compound 0.0316 µM): < 31.6 nM | IC50 (second compound 0.1 µM): < 31.6 nM | IC50 (second compound 0.316 µM): < 31.6 nM | IC50 (second compound 1 µM): < 31.6 nM | IC50 (second compound 3.16 µM): < 31.6 nM | IC50 (second compound 10 µM): < 31.6 nM | viability, T/C [1]: 13.7% | viability, T/C [2]: 11.3% | viability, T/C [3]: 10.6% | viability, T/C [4]: 11.4% | viability, T/C [5]: 10.2% | viability, T/C [6]: 11.2% | viability, T/C [7]: 12.4% | viability, T/C [8]: 12.1% | viability, T/C [9]: 12.4% | viability, T/C [10]: 10.7% | viability, T/C [11]: 11.3% | viability, T/C [12]: 7.45% | viability, T/C [13]: 15.1% | viability, T/C [14]: 11.4% | viability, T/C [15]: 11.7% | viability, T/C [16]: 11.4% | viability, T/C [17]: 9.7% | viability, T/C [18]: 8.1% | viability, T/C [19]: 13% | viability, T/C [20]: 12.8% | viability, T/C [21]: 9.09% | viability, T/C [22]: 9.18% | viability, T/C [23]: 9.72% | viability, T/C [24]: 7.74% | viability, T/C [25]: 8.77% | viability, T/C [26]: 9.43% | viability, T/C [27]: 9.15% | viability, T/C [28]: 11.1% | viability, T/C [29]: 10.6% | viability, T/C [30]: 6.66% | viability, T/C [31]: 12.3% | viability, T/C [32]: 7.9% | viability, T/C [33]: 9.45% | viability, T/C [34]: 9.57% | viability, T/C [35]: 8.82% | viability, T/C [36]: 9.01%

CC1COCCN1c1cc(-c2ccnn2C)c2ccnc(-c3ccn[nH]3)c2n1 (stereo not drawn) + Cc1cnc(CNC(=O)c2c(=O)c3ccc(N4CCCN(C)CC4)nc3n3c2sc2ccccc23)cn1
IC50 (second compound 0.0316 µM): < 31.6 nM | IC50 (second compound 0.1 µM): < 31.6 nM | IC50 (second compound 0.316 µM): < 31.6 nM | IC50 (second compound 1 µM): < 31.6 nM | IC50 (second compound 3.16 µM): < 31.6 nM | IC50 (second compound 10 µM): < 31.6 nM | viability, T/C [1]: 16.8% | viability, T/C [2]: 9.68% | viability, T/C [3]: 7.59% | viability, T/C [4]: 5.06% | viability, T/C [5]: 4.01% | viability, T/C [6]: 2.97% | viability, T/C [7]: 10.3% | viability, T/C [8]: 7.36% | viability, T/C [9]: 6.21% | viability, T/C [10]: 5.27% | viability, T/C [11]: 3.92% | viability, T/C [12]: 4.13% | viability, T/C [13]: 9% | viability, T/C [14]: 7.55% | viability, T/C [15]: 6.04% | viability, T/C [16]: 5.16% | viability, T/C [17]: 4.14% | viability, T/C [18]: 3.5% | viability, T/C [19]: 8.34% | viability, T/C [20]: 6.08% | viability, T/C [21]: 5.92% | viability, T/C [22]: 5.14% | viability, T/C [23]: 3.89% | viability, T/C [24]: 3% | viability, T/C [25]: 7.12% | viability, T/C [26]: 7.74% | viability, T/C [27]: 7.15% | viability, T/C [28]: 5.94% | viability, T/C [29]: 3.88% | viability, T/C [30]: 2.53% | viability, T/C [31]: 6.76% | viability, T/C [32]: 5.78% | viability, T/C [33]: 7.42% | viability, T/C [34]: 3.84% | viability, T/C [35]: 4.68% | viability, T/C [36]: 2.74%

CC1COCCN1c1cc(C2(O)CC3CCC(C2)O3)c2cnn(-c3ccn[nH]3)c2n1 (stereo not drawn) + Cc1cnc(CNC(=O)c2c(=O)c3ccc(N4CCCN(C)CC4)nc3n3c2sc2ccccc23)cn1
IC50 (second compound 0.0316 µM): < 31.6 nM | IC50 (second compound 0.1 µM): < 31.6 nM | IC50 (second compound 0.316 µM): < 31.6 nM | IC50 (second compound 1 µM): < 31.6 nM | IC50 (second compound 3.16 µM): < 31.6 nM | IC50 (second compound 10 µM): < 31.6 nM | viability, T/C [1]: 13.8% | viability, T/C [2]: 8.52% | viability, T/C [3]: 5.86% | viability, T/C [4]: 3.91% | viability, T/C [5]: 3.41% | viability, T/C [6]: 2.21% | viability, T/C [7]: 10.6% | viability, T/C [8]: 7.17% | viability, T/C [9]: 5.58% | viability, T/C [10]: 4.56% | viability, T/C [11]: 3.63% | viability, T/C [12]: 2.02% | viability, T/C [13]: 8.26% | viability, T/C [14]: 6.06% | viability, T/C [15]: 5.61% | viability, T/C [16]: 4.38% | viability, T/C [17]: 2.92% | viability, T/C [18]: 2.02% | viability, T/C [19]: 5.97% | viability, T/C [20]: 6.1% | viability, T/C [21]: 5.48% | viability, T/C [22]: 3.78% | viability, T/C [23]: 3.09% | viability, T/C [24]: 1.97% | viability, T/C [25]: 5.79% | viability, T/C [26]: 6.38% | viability, T/C [27]: 5% | viability, T/C [28]: 2.96% | viability, T/C [29]: 2.76% | viability, T/C [30]: 1.84% | viability, T/C [31]: 5.85% | viability, T/C [32]: 5.61% | viability, T/C [33]: 4.3% | viability, T/C [34]: 4.69% | viability, T/C [35]: 3.15% | viability, T/C [36]: 1.81%

O=C(c1cc(Cc2n[nH]c(=O)c3ccccc23)ccc1F)N1CCN(C(=O)C2CC2)CC1 + Cc1cnc(CNC(=O)c2c(=O)c3ccc(N4CCCN(C)CC4)nc3n3c2sc2ccccc23)cn1
IC50 (second compound 0.0316 µM): 1610 nM | IC50 (second compound 0.1 µM): < 31.6 nM | IC50 (second compound 0.316 µM): < 31.6 nM | IC50 (second compound 1 µM): < 31.6 nM | IC50 (second compound 3.16 µM): < 31.6 nM | IC50 (second compound 10 µM): < 31.6 nM | viability, T/C [1]: 58.6% | viability, T/C [2]: 73% | viability, T/C [3]: 53.6% | viability, T/C [4]: 55.8% | viability, T/C [5]: 43.5% | viability, T/C [6]: 20.8% | viability, T/C [7]: 42.1% | viability, T/C [8]: 39.9% | viability, T/C [9]: 34% | viability, T/C [10]: 27.9% | viability, T/C [11]: 24.2% | viability, T/C [12]: 17.8% | viability, T/C [13]: 22.4% | viability, T/C [14]: 27.7% | viability, T/C [15]: 24% | viability, T/C [16]: 23.5% | viability, T/C [17]: 16.9% | viability, T/C [18]: 18.1% | viability, T/C [19]: 14.4% | viability, T/C [20]: 17.3% | viability, T/C [21]: 18.9% | viability, T/C [22]: 16.9% | viability, T/C [23]: 16% | viability, T/C [24]: 12.9% | viability, T/C [25]: 9.91% | viability, T/C [26]: 10.6% | viability, T/C [27]: 10.1% | viability, T/C [28]: 10.6% | viability, T/C [29]: 11.1% | viability, T/C [30]: 10.5% | viability, T/C [31]: 8.62% | viability, T/C [32]: 11.4% | viability, T/C [33]: 9.01% | viability, T/C [34]: 8.13% | viability, T/C [35]: 9.75% | viability, T/C [36]: 9.07%
